The results in this text go back to paper PMC9045243, “Gluconate Kinase Is Required for Gluconate Assimilation and Sporulation in Cryptococcus neoformans” (Microbiology Spectrum, 2022).

The target in test [1] is T1, CnGnk1 (Gnk1, Gnk1p; formerly IRK3) (Cryptococcus neoformans, UniProt J9VGW6).
T1 construct: gene CNAG_03048
T1 sequence (J9VGW6 1-230): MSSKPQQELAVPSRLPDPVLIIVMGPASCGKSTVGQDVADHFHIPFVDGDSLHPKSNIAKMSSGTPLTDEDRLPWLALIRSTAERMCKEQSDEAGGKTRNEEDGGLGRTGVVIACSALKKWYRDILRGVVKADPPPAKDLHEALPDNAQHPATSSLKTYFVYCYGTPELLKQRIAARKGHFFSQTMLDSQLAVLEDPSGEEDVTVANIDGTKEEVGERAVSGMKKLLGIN
Put plainly: 6PGDH-coupled NADPH absorbance at […] nm. Type of test: biochemical. The note with it: 1 mM MgCl2, 500 uM NADP+, pH 7.5, 37 C.

Test [2] deals with T1, CnGnk1 (Gnk1, Gnk1p; formerly IRK3). Description: competition against gluconate, 6PGDH-coupled NADPH absorbance at […] nm. Format: biochemical. The note with it: 0.5 mM gluconate, competing sugar 10 mM.

Turning to `O=C(O)[C@H](O)[C@@H](O)[C@H](O)[C@H](O)CO` [gluconate], the “KM (apparent)” value in test [1] (10 mM ATP) is recorded as 3.7, 95% CI (2.7, 5.2) mM.
In the case of `OC[C@H]1OC(O)[C@H](O)[C@@H](O)[C@H]1O` (some centres unmarked) [galactose], the “% reduction in activity at 10 mM” value in test [2] is ~ 20%.
Regarding `OC[C@H]1OC(O)[C@H](O)[C@@H](O)[C@@H]1O` (some centres unmarked) [glucose], the “% reduction in activity at 10 mM” value in test [2] is ~ 40%.
Same read-out and setting: with `OC[C@@H](O)[C@@H](O)[C@H](O)[C@H](O)CO` [mannitol] the figure was ~ 20%.
Consider `Nc1ncnc2c1ncn2[C@@H]1O[C@H](COP(=O)(O)OP(=O)(O)OP(=O)(O)O)[C@@H](O)[C@H]1O` [ATP], for which the “KM (apparent)” value in test [1] (10 mM gluconate) is 2.6, 95% CI (1.9, 3.7) mM.
